Source: PMC5641919, “Structural basis for antibacterial peptide self‐immunity by the bacterial ABC transporter McjD” (The EMBO Journal, 2017)

Biological target: T1, McjD (Escherichia coli, UniProt Q9X2W0)
T1 construct: reconstituted in E. coli polar lipid proteoliposomes for transport; plasmid-encoded mcjABCD operon
Assay: ATP-dependent Hoechst fluorescence uptake in proteoliposomes
Type: biochemical
Conditions: 0.1 μM Hoechst, 50 mM Tris pH 8, 50 mM KCl, E. coli polar lipids

T1 sequence (Q9X2W0 whole entry): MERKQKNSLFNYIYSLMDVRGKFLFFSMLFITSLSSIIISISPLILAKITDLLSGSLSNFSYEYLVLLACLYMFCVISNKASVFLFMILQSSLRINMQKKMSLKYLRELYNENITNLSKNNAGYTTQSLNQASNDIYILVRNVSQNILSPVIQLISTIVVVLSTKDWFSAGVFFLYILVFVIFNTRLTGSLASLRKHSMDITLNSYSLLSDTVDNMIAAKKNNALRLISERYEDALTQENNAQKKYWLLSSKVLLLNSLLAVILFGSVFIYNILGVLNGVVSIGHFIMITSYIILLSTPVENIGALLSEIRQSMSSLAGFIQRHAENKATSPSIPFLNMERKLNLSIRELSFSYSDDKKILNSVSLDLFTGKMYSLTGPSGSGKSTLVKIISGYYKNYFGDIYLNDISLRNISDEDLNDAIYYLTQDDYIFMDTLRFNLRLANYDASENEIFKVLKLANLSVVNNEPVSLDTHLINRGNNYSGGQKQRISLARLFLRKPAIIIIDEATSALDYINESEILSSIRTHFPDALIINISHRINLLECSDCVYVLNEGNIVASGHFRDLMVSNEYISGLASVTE

SMILES: CCOc1ccc(-c2nc3ccc(-c4nc5ccc(N6CCN(C)CC6)cc5[nH]4)cc3[nH]2)cc1 [Hoechst 33342]
- ATP-dependent Hoechst fluorescence uptake in proteoliposomes: McjD mediates the ATP‐dependent uptake of Hoechst in proteoliposomes (black line)
